Data: the supplement of paper PMC10307832

What was measured:
Assay in all cases: relative viability (nuclei count vs DMSO), 5 days (fraction); higher = more cells survive
BX 795 = compound: O=C(NCCCNc1nc(Nc2cccc(NC(=O)N3CCCC3)c2)ncc1I)c1cccs1 [BX 795]
How it was run: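 On vehicle-anchored 1536-well plates, lung cancer cell lines held overnight at 37 °C were pinned with five library-drug doses (not always all listed) spaced by √10. With no medium change over 5 days, they were then fixed, permeabilised and Hoechst-stained in one step and imaged at 4×. MetaXpress counted nuclei, and viability is the median across plates of treated-well over vehicle-well nuclei. Acceptance needed control CV below 25% and at least one doubling.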

BX 795 + Luminespib = compound: O=C(NCCCNc1nc(Nc2cccc(NC(=O)N3CCCC3)c2)ncc1I)c1cccs1 [BX 795] + CCNC(=O)c1noc(-c2cc(C(C)C)c(O)cc2O)c1-c1ccc(CN2CCOCC2)cc1 [Luminespib] (partner 0.01 µM)
How it was run: (§1)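 Cells from lung cancer lines were seeded into 1536-well plates and, one day later, dosed by pin tool. Treatments were either a single drug or a fixed dose of an anchor drug with five library-drug doses (not always all listed) in √10 steps. After 5 days, nuclei were stained in a one-step fixation (final 0.05% Triton X-100, 1% formaldehyde, 1 ug/ml Hoechst) and counted on 4× images, and relative viability is the treated-to-vehicle nuclei ratio, as the median of duplicate plates.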

BX 795 + Lapatinib = compound: O=C(NCCCNc1nc(Nc2cccc(NC(=O)N3CCCC3)c2)ncc1I)c1cccs1 [BX 795] + CS(=O)(=O)CCNCc1ccc(-c2ccc3ncnc(Nc4ccc(OCc5cccc(F)c5)c(Cl)c4)c3c2)o1 [Lapatinib] (partner 2 µM)
How it was run: as §1

BX 795 + Crizotinib = compound: O=C(NCCCNc1nc(Nc2cccc(NC(=O)N3CCCC3)c2)ncc1I)c1cccs1 [BX 795] + C[C@@H](Oc1cc(-c2cnn(C3CCNCC3)c2)cnc1N)c1c(Cl)ccc(F)c1Cl [Crizotinib] (partner 1 µM)
How it was run: as §1

BX 795 + Vorinostat = compound: O=C(NCCCNc1nc(Nc2cccc(NC(=O)N3CCCC3)c2)ncc1I)c1cccs1 [BX 795] + O=C(CCCCCCC(=O)Nc1ccccc1)NO [Vorinostat] (partner 1 µM)
How it was run: as §1

| Cell Line | relative viability (BX 795; 0.04 µM) | relative viability (BX 795; 0.1265 µM) | relative viability (BX 795; 0.4 µM) | relative viability (BX 795; 1.265 µM) | relative viability (BX 795 + Luminespib; first compound 0.04 µM) | relative viability (BX 795 + Luminespib; first compound 0.1265 µM) | relative viability (BX 795 + Luminespib; first compound 0.4 µM) | relative viability (BX 795 + Luminespib; first compound 1.265 µM) | relative viability (BX 795 + Lapatinib; first compound 0.04 µM) | relative viability (BX 795 + Lapatinib; first compound 0.1265 µM) | relative viability (BX 795 + Lapatinib; first compound 0.4 µM) | relative viability (BX 795 + Lapatinib; first compound 1.265 µM) | relative viability (BX 795 + Crizotinib; first compound 0.04 µM) | relative viability (BX 795 + Crizotinib; first compound 0.1265 µM) | relative viability (BX 795 + Crizotinib; first compound 0.4 µM) | relative viability (BX 795 + Crizotinib; first compound 1.265 µM) | relative viability (BX 795 + Vorinostat; first compound 0.04 µM) | relative viability (BX 795 + Vorinostat; first compound 0.1265 µM) | relative viability (BX 795 + Vorinostat; first compound 0.4 µM) | relative viability (BX 795 + Vorinostat; first compound 1.265 µM) |
| --- | --- | --- | --- | --- | --- | --- | --- | --- | --- | --- | --- | --- | --- | --- | --- | --- | --- | --- | --- | --- |
| NCI-H1734 | 1.06 | 1.02 | 0.908 | 0.668 | 0.173 | 0.209 | 0.154 | 0.149 | 0.993 | 1.15 | 0.79 | 0.801 | 0.765 | 0.727 | 0.64 | 0.432 | 0.888 | 0.773 | 0.482 | 0.34 |
| NCI-H1755 | 1.05 | 1.03 | 0.972 | 0.881 | 0.635 | 0.412 | 0.283 | 0.388 | 1.03 | 1.05 | 0.999 | 0.861 | 0.935 | 0.908 | 0.767 | 0.516 | 0.738 | 0.735 | 0.739 | 0.761 |
| NCI-H1915 | 1.03 | 0.974 | 0.955 | 0.903 | 0.688 | 0.891 | 0.71 | 0.624 | 0.947 | 0.951 | 0.947 | 0.827 | 0.904 | 0.95 | 0.85 | 0.765 | 0.534 | 0.51 | 0.525 | 0.49 |
| NCI-H1944 | 1.06 | 0.996 | 1.16 | 0.958 | 0.739 | 0.729 | 0.758 | 0.595 | 0.903 | 0.781 | 0.879 | 0.642 | 1.18 | 1.03 | 1.09 | 0.741 | 0.674 | 0.637 | 0.575 | 0.475 |
| NCI-H1975 | 0.977 | 1.07 | 0.858 | 0.806 | 0.228 | 0.427 | 0.139 | 0.183 | 0.903 | 0.982 | 0.727 | 0.512 | 0.99 | 1.04 | 0.879 | 0.643 | 0.761 | 0.713 | 0.656 | 0.399 |
| NCI-H1993 | 1.05 | 0.983 | 0.926 | 0.893 | 0.686 | 1.1 | 0.726 | 0.532 | 0.848 | 0.786 | 0.79 | 0.658 | 0.888 | 0.891 | 0.795 | 0.665 | 0.833 | 0.731 | 0.577 | 0.524 |
| NCI-H2009 | 0.981 | 0.976 | 0.996 | 0.782 | 1.02 | 0.932 | 1.11 | 0.83 | 0.912 | 0.86 | 0.988 | 0.671 | 1.02 | 0.972 | 0.874 | 0.645 | 0.731 | 0.67 | 0.818 | 0.591 |
| NCI-H2023 | 0.906 | 0.904 | 0.571 | 0.6 | 0.766 | 0.613 | 0.442 | 0.272 | 0.538 | 0.749 | 0.32 | 0.522 | 0.592 | 0.626 | 0.269 | 0.282 | 0.471 | 0.689 | 0.189 | 0.3 |
| NCI-H2085 | 1.01 | 1.03 | 0.981 | 0.97 | 0.38 | 0.416 | 0.441 | 0.332 | 0.881 | 0.781 | 0.741 | 0.642 | 0.911 | 0.841 | 0.843 | 0.732 | 0.78 | 0.809 | 0.778 | 0.725 |
| NCI-H2087 | 1.07 | 1.14 | 1.15 | 0.941 | 0.188 | 0.199 | 0.157 | 0.147 | 1.24 | 1.05 | 1.08 | 0.975 | 0.745 | 0.963 | 0.868 | 0.516 | 0.762 | 1.06 | 0.95 | 0.587 |
| NCI-H2126 | 1.01 | 1.02 | 1.1 | 0.983 | 0.902 | 0.955 | 0.812 | 0.944 | 0.728 | 0.752 | 0.837 | 0.767 | 1.04 | 0.984 | 1.09 | 0.945 | 0.805 | 0.799 | 0.913 | 0.73 |
| NCI-H2170 | 0.955 | 0.951 | 0.958 | 0.942 | 0.83 | 0.541 | 0.39 | 0.544 | 0.26 | 0.28 | 0.262 | 0.289 | 1.17 | 1.27 | 1.07 | 1.13 | 0.942 | 0.985 | 0.824 | 0.817 |
| NCI-H2228 | 1.07 | 1.21 | 1.04 | 0.871 | 0.104 | 0.127 | 0.122 | 0.169 | 0.87 | 1.3 | 0.791 | 0.319 | 0.635 | 0.5 | 0.572 | 0.288 | 0.761 | 0.898 | 0.63 | 0.556 |
| NCI-H2347 | 1.14 | 1.01 | 1.28 | 0.935 | 0.534 | 0.563 | 0.751 | 0.607 | 0.945 | 0.903 | 1.16 | 0.914 | 0.8 | 0.616 | 0.801 | 0.545 | 0.5 | 0.633 | 0.717 | 0.505 |
| NCI-H2405 | 1.06 | 0.963 | 0.988 | 0.89 | 0.718 | 0.714 | 0.573 | 0.585 | 1.21 | 1 | 0.792 | 0.733 | 0.806 | 0.842 | 0.635 | 0.794 | 1.01 | 0.809 | 0.951 | 0.821 |
